Type in all cases: in vivo
Test [1] has as its system Tenebrio molitor pupae. The experiment in a line: topical application to Tenebrio molitor pupae, maturation inhibition. The source says:
(§1) The compounds were applied in acetone solution at concentrations of 10 percent, 1 percent and 0.5 percent. One microliter of the acetone solution was applied to each test specimen. Ten test specimens were employed for each insect at each concentration and compared to ten acetone controls and ten zero controls. Approximately eight to ten days were required before results could be ascertained.
(§2) The insect species used in the test were Tenebrio molitor pupae; milkweed bug, fourth nymphal stage; wax moth, fifth larval stage; and Mexican bean beetle, fourth larval stage. At the completion of the test, each specimen was examined for the degree of juvenile and adult characteristics. The milkweed bug, wax moth, and Mexican bean beetle were assigned a numerical rating of 0 to 3 with 0 indicating no effect and 3 indicating the maximum effect or least adult development. Because of differences in morphology the Tenebrio rating scale was 0 to 4. In all cases a rating of 2 or higher means that the insect is incapable of reproduction. The number of specimens in each rating classification are given. In any test were the total of specimens reported is less than 10, those unreported died in some metamorphic stage. Such deaths indicate control, since the dead insects are not capable of reproducing.

In test [2] the test system is milkweed bug. The test is described as follows: topical application to milkweed bug, fourth nymphal stage, maturation inhibition.
From the text: as §1, §2

Test [3] relates to wax moth. The experiment in a line: topical application to wax moth, fifth larval stage, maturation inhibition.
From the text: as §1, §2

Test [4] has as its system Mexican bean beetle. The experiment in a line: topical application to Mexican bean beetle, fourth larval stage, maturation inhibition.
From the text: as §1, §2

Where [5] appears, read: 10% in acetone, 1 microliter topical, rating scale 0 (no effect) to 4 (maximum).
The mark [6] stands for this setting: 10% in acetone, 1 microliter topical, rating scale 0 (no effect) to 3 (maximum).

For `CC(C)=CCC/C(C)=C/CCc1ccc(C#N)cc1` [trans-4-(4,8-DIMETHYL-3,7-NONADIENYL)BENZONITRILE], the “number of specimens in rating 0” value in test [1] (0.5%, rating scale 0-4) amounted to 10 specimens; in test [1] (1%, rating scale 0-4), 10 specimens; in test [1] (setting [5]) it was 9 specimens; in test [2] (0.5%, rating scale 0-3) it was 3 specimens; in test [3] (0.5%, rating scale 0-3), 10 specimens; in test [3] (1%, rating scale 0-3), 10 specimens. The “number of specimens in rating 0” value in test [3] (setting [6]) came out at 10 specimens; in test [4] (0.5%, rating scale 0-3), 10 specimens; in test [4] (1%, rating scale 0-3), 10 specimens; in test [4] (setting [6]), 10 specimens. Moreover, the “number of specimens in rating 4” value in test [1] (10%, rating scale 0-4) came to 1 specimens. In addition, the “number of specimens in rating 1” value in test [2] (0.5%, rating scale 0-3) was found to be 5 specimens. The “number of specimens in rating 2” value in test [2] (0.5%, rating scale 0-3) was 1 specimens; in test [2] (1%, rating scale 0-3) it was 3 specimens. Also, the “number of specimens in rating 3” value in test [2] (0.5%, rating scale 0-3) was 1 specimens; in test [2] (1%, rating scale 0-3) it was 7 specimens; in test [2] (10%, rating scale 0-3), 10 specimens.

On to `COc1ccc(CCC=C(C)CCC=C(C)C)cc1` [2,6-DIMETHYL-9-(4-METHOXYPHENYL)-2,6-NONADIENE], for which the “number of specimens in rating 0” value in test [1] (0.5%, rating scale 0-4) was 1 specimens; in test [2] (0.5%, rating scale 0-3), 10 specimens; in test [2] (1%, rating scale 0-3) it was 5 specimens; in test [3] (0.5%, rating scale 0-3), 10 specimens; in test [3] (1%, rating scale 0-3) it was 9 specimens; in test [3] (setting [6]), 10 specimens. The “number of specimens in rating 0” value came out at 10 specimens in test [4] (0.5%, rating scale 0-3); 10 specimens in test [4] (1%, rating scale 0-3); 6 specimens in test [4] (setting [6]). Besides, the “number of specimens in rating 1” value in test [1] (0.5%, rating scale 0-4) was 6 specimens; in test [1] (1%, rating scale 0-4), 1 specimens; in test [2] (1%, rating scale 0-3), 5 specimens; in test [4] (10%, rating scale 0-3), 1 specimens. The “number of specimens in rating 2” value in test [1] (0.5%, rating scale 0-4) worked out at 3 specimens; in test [1] (1%, rating scale 0-4), 2 specimens; in test [4] (10%, rating scale 0-3) it was 3 specimens. The “number of specimens in rating 3” value in test [1] (1%, rating scale 0-4) is on record as 5 specimens. For the same compound, the “number of specimens in rating 4” value in test [1] (1%, rating scale 0-4) worked out at 2 specimens.

As to `CCOC(=O)c1ccc(CC/C=C(\C)CCC=C(C)C)cc1` [ethyl trans-4-(4,8-dimethyl-3,7-nonadienyl)benzoate], the “number of specimens in rating 0” value in test [1] (0.5%, rating scale 0-4) stood at 9 specimens; in test [1] (1%, rating scale 0-4) it was 10 specimens; in test [1] (setting [5]), 3 specimens; in test [2] (0.5%, rating scale 0-3) it was 1 specimens; in test [3] (0.5%, rating scale 0-3), 10 specimens; in test [3] (1%, rating scale 0-3) it was 10 specimens. Further, the “number of specimens in rating 0” value in test [3] (setting [6]) amounted to 10 specimens; in test [4] (0.5%, rating scale 0-3), 9 specimens; in test [4] (1%, rating scale 0-3), 10 specimens; in test [4] (setting [6]), 8 specimens. Also, the “number of specimens in rating 1” value in test [1] (10%, rating scale 0-4) is reported as 5 specimens. Also, the “number of specimens in rating 2” value was 1 specimens in test [1] (10%, rating scale 0-4); 3 specimens in test [2] (0.5%, rating scale 0-3); 2 specimens in test [4] (10%, rating scale 0-3). For the same compound, the “number of specimens in rating 3” value in test [1] (10%, rating scale 0-4) is 1 specimens; in test [2] (0.5%, rating scale 0-3), 6 specimens; in test [2] (1%, rating scale 0-3), 10 specimens; in test [2] (10%, rating scale 0-3), 10 specimens.

For the compound `CCCCCCCCCc1ccc2c(c1)OCO2` [5-(n-NONYL)-1,3-BENZODIOXOLE], the “number of specimens in rating 0” value in test [1] (0.5%, rating scale 0-4) amounted to 6 specimens; in test [1] (1%, rating scale 0-4) it was 2 specimens; in test [2] (0.5%, rating scale 0-3) it was 8 specimens; in test [2] (1%, rating scale 0-3), 3 specimens; in test [2] (setting [6]), 4 specimens; in test [4] (0.5%, rating scale 0-3) it was 9 specimens. In addition, in test [4] (1%, rating scale 0-3), the “number of specimens in rating 0” value is 10 specimens. Also, the “number of specimens in rating 1” value in test [1] (0.5%, rating scale 0-4) is recorded as 1 specimens; in test [2] (0.5%, rating scale 0-3) it was 1 specimens; in test [2] (1%, rating scale 0-3) it was 1 specimens. The “number of specimens in rating 2” value is recorded as 3 specimens in test [1] (0.5%, rating scale 0-4); 5 specimens in test [1] (1%, rating scale 0-4); 1 specimens in test [2] (1%, rating scale 0-3); 1 specimens in test [2] (10%, rating scale 0-3). In addition, the “number of specimens in rating 3” value in test [1] (1%, rating scale 0-4) was 1 specimens; in test [1] (10%, rating scale 0-4) it was 3 specimens; in test [2] (1%, rating scale 0-3), 4 specimens; in test [2] (10%, rating scale 0-3) it was 5 specimens; in test [4] (10%, rating scale 0-3), 8 specimens. Also, the “number of specimens in rating 4” value is 1 specimens in test [1] (1%, rating scale 0-4) and 7 specimens in test [1] (10%, rating scale 0-4).

For the compound `CC(C)=CCC/C(C)=C/CCc1cccc(Br)c1` [trans-9-(3-BROMOPHENYL)-2,6-DIMETHYL-2,6-NONADIENE], the “number of specimens in rating 0” value in test [1] (0.5%, rating scale 0-4) stood at 8 specimens; in test [1] (1%, rating scale 0-4), 8 specimens; in test [1] (setting [5]), 8 specimens; in test [4] (0.5%, rating scale 0-3), 8 specimens; in test [4] (1%, rating scale 0-3), 7 specimens; in test [4] (setting [6]) it was 9 specimens. The “number of specimens in rating 1” value in test [1] (0.5%, rating scale 0-4) was found to be 1 specimens; in test [1] (1%, rating scale 0-4) it was 2 specimens; in test [1] (10%, rating scale 0-4), 2 specimens; in test [4] (0.5%, rating scale 0-3) it was 1 specimens; in test [4] (1%, rating scale 0-3), 1 specimens. Further, the “number of specimens in rating 2” value in test [1] (0.5%, rating scale 0-4) stood at 1 specimens. In addition, the “number of specimens in rating 3” value turned out to be 10 specimens in test [2] (0.5%, rating scale 0-3); 10 specimens in test [2] (1%, rating scale 0-3); 10 specimens in test [2] (10%, rating scale 0-3); 1 specimens in test [4] (0.5%, rating scale 0-3); 2 specimens in test [4] (1%, rating scale 0-3); 1 specimens in test [4] (10%, rating scale 0-3).

Regarding `CC(C)=CCC/C(C)=C/CCc1cccs1` [trans-9-(2-THIENYL)-2,6-DIMETHYL-2,6-NONADIENE], the “number of specimens in rating 0” value in test [1] (0.5%, rating scale 0-4) was 8 specimens; in test [1] (1%, rating scale 0-4), 10 specimens; in test [2] (0.5%, rating scale 0-3), 10 specimens; in test [2] (1%, rating scale 0-3), 10 specimens; in test [2] (setting [6]), 3 specimens; in test [4] (0.5%, rating scale 0-3), 9 specimens. The “number of specimens in rating 0” value in test [4] (1%, rating scale 0-3) is 5 specimens. The “number of specimens in rating 1” value in test [1] (0.5%, rating scale 0-4) came to 2 specimens; in test [1] (10%, rating scale 0-4), 1 specimens; in test [4] (0.5%, rating scale 0-3) it was 1 specimens; in test [4] (1%, rating scale 0-3), 5 specimens. For the same compound, in test [1] (10%, rating scale 0-4), the “number of specimens in rating 4” value is given as 9 specimens. Besides, the “number of specimens in rating 3” value in test [2] (10%, rating scale 0-3) is given as 4 specimens; in test [4] (10%, rating scale 0-3), 10 specimens.

On to `CC(C)CCCC(C)CCCc1ccc2c(c1)OCO2` (stereo not drawn) [9-(3,4-methylenedioxyphenyl)-2,6-dimethylnonane], for which the “number of specimens in rating 3” value was 3 specimens in test [1] (0.5%, rating scale 0-4); 8 specimens in test [2] (0.5%, rating scale 0-3); 10 specimens in test [2] (1%, rating scale 0-3); 8 specimens in test [2] (10%, rating scale 0-3). Also, the “number of specimens in rating 4” value in test [1] (0.5%, rating scale 0-4) amounted to 7 specimens; in test [1] (1%, rating scale 0-4), 10 specimens; in test [1] (10%, rating scale 0-4), 10 specimens.

On to `CCC(C)=CCCC(C)=CCCc1ccc2c(c1)OCO2` [3,7-DIMETHYL-10-(3,4-METHYLENEDIOXYPHENYL)-3,7-DECADIENE], for which the “number of specimens in rating 4” value in test [1] (0.5%, rating scale 0-4) stood at 10 specimens; in test [1] (1%, rating scale 0-4), 10 specimens; in test [1] (10%, rating scale 0-4), 10 specimens. In addition, the “number of specimens in rating 1” value in test [2] (0.5%, rating scale 0-3) was determined as 1 specimens. The “number of specimens in rating 3” value was 8 specimens in test [2] (0.5%, rating scale 0-3); 9 specimens in test [2] (1%, rating scale 0-3); 5 specimens in test [2] (10%, rating scale 0-3).

Take `CC(C)=CCC/C(C)=C/CCc1ccc(Br)cc1` [trans-9-(4-BROMOPHENYL)-2,6-DIMETHYL-2,6-NONADIENE]: the “number of specimens in rating 0” value was determined as 8 specimens in test [1] (0.5%, rating scale 0-4) and 9 specimens in test [1] (1%, rating scale 0-4). Also, the “number of specimens in rating 1” value in test [1] (0.5%, rating scale 0-4) stood at 1 specimens; in test [1] (1%, rating scale 0-4), 1 specimens. Moreover, the “number of specimens in rating 4” value in test [1] (0.5%, rating scale 0-4) worked out at 1 specimens; in test [1] (10%, rating scale 0-4), 10 specimens. The “number of specimens in rating 3” value in test [2] (0.5%, rating scale 0-3) was determined as 10 specimens; in test [2] (1%, rating scale 0-3), 10 specimens; in test [2] (10%, rating scale 0-3), 9 specimens; in test [4] (0.5%, rating scale 0-3), 10 specimens; in test [4] (1%, rating scale 0-3), 10 specimens; in test [4] (10%, rating scale 0-3), 10 specimens.

For the origin of these results see patent publication US3962282A, “Juvenile hormone mimics” (priority 1974, dated 1976).
